# Data reported in PMC5365251, “Biophysical assay for tethered signaling reactions reveals tether-controlled activity for the phosphatase SHP-1” (Science Advances, 2017).
# Legend:
# [1] = tested on: phosphorylated ITIM peptide on PEG28; test: Calculation of local concentration, dephosphorylation time and rate enhancement from fitted parameters; parameters: species or system mouse
# Protocol: The tethered enzymatic SPR assay also produced an estimate for the reach parameter (L), which was 23 nm. This number corresponds to a phosphorylated substrate experiencing a maximum local SHP-1 concentration of 45 μM when tethered, compared to, for example, a concentration of 1 μM in solution (Fig. 2A) or in the cytoplasm of immune cells (see Discussion).
# Activatory and inhibitory immune receptors are both known to cluster in the plasma membrane ([11]–[15]), but the extent and consequences of clustering remain poorly understood. In the absence of clustering, a phosphorylation site on the cytoplasmic tails of these receptors will experience the low ~1-μM concentration of cytoplasmic SHP-1 [based on 280,000 copies of SHP-1 in cytotoxic T cells ([30]) with a radius of 5 μm]. Tethering of SHP-1 to nonclustered immune receptors at distances >50 nm results in even lower concentrations (for example, 0.04 μM when receptors are 50-nm apart), but when clustered within 5 nm, we can now estimate that this phosphorylated site will experience an SHP-1 concentration of 45 μM (Fig. 8A). […] These concentrations are calculated using the formula for σ with L = 23 nm for r = 5 and 50 nm (see Materials and Methods). We note that this is based on a reach of L = 23 nm, which represents SHP-1 bound to an ITIM on PEG28 dephosphorylating another ITIM on PEG28.
# The combined effects induced by SHP-1 tethering on allosteric activation (20-fold) and local substrate concentration (45-fold) can be summarized by calculating the dephosphorylation rate ([SHP-1] × kcat* ).
# A key component of the models (described below) is the calculation of the local substrate concentration that a tethered enzyme experiences. We assume that the motion of an unbound phosphorylated peptide (state A) and the motion of SHP-1 bound to a phosphorylated peptide (state B) can both be approximated by the worm-like chain model, which is a widely used polymer model. […]
# [2] = tested on: PEG28-ITIM; test: Anti-phosphotyrosine antibody injected after SHP-1 on SPR chip: surviving phosphotyrosines; type: biochemical, mouse
# Protocol: To create a substrate surface for SHP-1 in SPR, we coated a surface with peptides containing an ITIM sequence, from the […] of the inhibitory receptor LAIR-1, with a 28-repeat polyethylene glycol (PEG) spacer (PEG28-ITIM; Table 1). When SHP-1 was injected over this surface, we observed a complicated curve with an initial binding phase that was quickly followed by a reduction in binding despite continuous injection of SHP-1 (Fig. 2A). To convert the arbitrary response units reported by the SPR instrument to a more meaningful unit, we normalized this curve to maximum binding, assuming a one-to-one interaction with peptide (see Materials and Methods).
# Fig. 2 An SPR assay recovers five independent biophysical/biochemical constants characterizing tethered enzymatic reactions by SHP-1. (A) Representative SPR trace (black dots) for SHP-1 injected over a surface immobilized with 48.5 RU of an ITIM peptide derived from LAIR-1 on a 28-repeat PEG linker (PEG28-ITIM). A fit of the MPDPDE model (red line) provides estimates for the indicated parameters. Early time data and fit are shown on the right. S1. […] (C) Schematic of reactions taking place when SHP-1 is injected over a surface of immobilized phosphorylated peptides. […]
substance,measurement,setting,value
"SHP-1: murine SHP-1 tyrosine phosphatase with an N-terminal 6× His tag, expressed in E. coli",increase in overall dephosphorylation rate when tethered and clustered,"[1]; [SHP-1] × kcat*, 45 μM × 0.0118 versus 1 μM × 0.000603 μM^-1 s^-1",900 fold
same,increase in SHP-1 (local substrate) concentration on tethering to clustered receptors,[1]; solution 1 μM versus tethered and clustered 45 μM,45 fold
same,reduction of reaction time by tethering,[1]; time to 50% dephosphorylation with versus without tethering,125 fold
same,dephosphorylation of immobilised peptide (in words),"[2]; anti-phosphotyrosine antibody (clone 4G10) injected after SHP-1 on SPR chip, PEG28-ITIM",near complete dephosphorylation
same,anti-phosphotyrosine antibody binding after SHP-1 injection (in words),"[2]; experimental flow cell compared to buffer-injected control with equivalent peptide levels, Fig. 2B",reduced binding
